Source: paper PMC9133015 (Nature Communications, 2022)
Read-outs that look alike come from different tables or passages of the source.

Assay: Pharmacokinetic profiles
Assay type: in vivo
Conditions: rat, SD rats; for MRT inf: read-out: MRT0-∞
[1] = SD, serum, iv, 1 mg/kg, IV 1 mg/kg, read-out: Con. (individual rats NO.1-3)
[2] = SD, serum, iv, 1 mg/kg, IV 1 mg/kg, read-out: Con. Mean
[3] = SD, serum, po, 10 mg/kg, PO 10 mg/kg, read-out: Con. (individual rats NO.1-3)
[4] = SD, serum, po, 10 mg/kg, PO 10 mg/kg, read-out: Con. Mean
[5] = Sprague-Dawley, serum, iv, 1 mg/kg, IV 1 mg/kg, read-out: Con. (individual rats NO.1-3)
[6] = Sprague-Dawley, serum, iv, 1 mg/kg, IV 1 mg/kg, read-out: Con. Mean

Question: Which results are given for CCN1CCN(C(=O)c2ccc(Nc3ncc(F)c(-c4ccc5nc(N(C)C)sc5c4)n3)nc2)CC1 [YK-2-69]?
Answer: concentration at 4 h [1]: 97 ng/mL; concentration at 4 h [2]: 95.2 ng/mL; concentration at 6 h [1]: 57.8 ng/mL; concentration at 6 h [2]: 62 ng/mL; concentration at 8 h [1]: 43 ng/mL; concentration at 8 h [2]: 41.5 ng/mL; concentration at 12 h [1]: 16.4 ng/mL; concentration at 12 h [2]: 16.9 ng/mL; concentration at 0.083 h [3]: 9.72 ng/mL; concentration at 0.083 h [4]: 9.82 ng/mL; concentration at 0.25 h [3]: 90.7 ng/mL; concentration at 0.25 h [4]: 93.1 ng/mL; concentration at 0.5 h [3]: 210 ng/mL; concentration at 0.5 h [4]: 220 ng/mL; concentration at 1 h [3]: 386 ng/mL; concentration at 1 h [4]: 400 ng/mL; concentration at 2 h [3]: 600 ng/mL; concentration at 2 h [4]: 629 ng/mL; concentration at 4 h [3]: 684 ng/mL; concentration at 4 h [4]: 663 ng/mL; concentration at 6 h [3]: 685 ng/mL; concentration at 6 h [4]: 589 ng/mL; concentration at 8 h [3]: 507 ng/mL; concentration at 8 h [4]: 483 ng/mL; concentration at 12 h [3]: 309 ng/mL; concentration at 12 h [4]: 269 ng/mL; concentration at 24 h [3]: 67.9 ng/mL; concentration at 24 h [4]: 57.4 ng/mL; concentration at 0.033 h (Sprague-Dawley, serum, iv, 1 mg/kg, IV 1 mg/kg, 0.033 h, read-out: Con. Mean): 974 ng/mL; concentration at 0.083 h [5]: 811 ng/mL; concentration at 0.083 h [6]: 781 ng/mL; concentration at 0.25 h [5]: 560 ng/mL; concentration at 0.25 h [6]: 524 ng/mL; concentration at 0.5 h [5]: 399 ng/mL; concentration at 0.5 h [6]: 421 ng/mL; concentration at 1 h [5]: 265 ng/mL; concentration at 1 h [6]: 310 ng/mL; concentration at 12 h (in vivo, IV 1 mg/kg, read-out: Con. (individual rats NO.1-3)): 19.8 ng/mL; AUC(0-inf) (serum, IV 1 mg/kg): 1500 ng·h/mL; Cmax (serum, IV 1 mg/kg): 974 ng/mL; Tmax (serum, IV 1 mg/kg): 0.0333 h; clearance (serum, IV 1 mg/kg): 11.2 mL/min/kg; half-life (serum, IV 1 mg/kg): 3 h; MRT inf (serum, IV 1 mg/kg): 3.5 h; AUC(0-inf) (serum, PO 10 mg/kg): 8380 ng·h/mL; Cmax (serum, PO 10 mg/kg): 674 ng/mL; Tmax (serum, PO 10 mg/kg): 4 h; half-life (serum, PO 10 mg/kg): 5 h; bioavailability (serum, PO 10 mg/kg vs IV 1 mg/kg, read-out: F (oral bioavailability)): 56%; MRT inf (serum, PO 10 mg/kg): 8.9 h
